Source: patent US9434711B2 (Janssen Pharmaceutica, NV, priority 2007, dated 2016)
pIC50: −log10 of the molar value. Like-named read-outs stand apart in the source and are kept apart here.

Experiments:
canine TRPM8 = canine TRPM8 (Canis lupus familiaris, UniProt Q1A7N1); test: TRPM8 Patch Clamp Assays (whole-cell, menthol or cold activation); assay type: cell-based
Description: For patch clamp experiments, HEK293 cells are stably transfected with canine TRPM8 and cultured in DMEM supplemented with 10% fetal bovine serum, 100 units/ml penicillin, 100 μg/ml streptomycin and 1 mg/ml G418. Cells are maintained at 37° C. and in 5% CO2.
The extracellular solution contains (in mM): NaCl, 132; EGTA, 1; KCl, 5.4; MgCl2, 0.8; HEPES, 10; glucose, 10; pH=7.4. Recordings are performed using the conventional whole-cell patch clamp technique, 1-2 days after plating cells onto glass coverslips at densities appropriate for single cell recording. Currents are amplified by a patch clamp amplifier and filtered at 2 kHz (Axopatch 200B, Molecular Devices, Union City, Calif.). Menthol (100 μM) is applied to the cell at 0.5 ml/min via a gravity-fed perfusion system. Recordings involving menthol activation are performed at 22° C.
In experiments where temperatures are varied, temperature ramps are generated by cooling the perfusate in an in-line cooler (Model SC-20, Warner Instruments, Hamden, Conn.) controlled by a temperature controller (Model CL-100, Warner Instruments). The temperature in the vicinity of the recorded cell is measured with a custom-made miniature thermo-microprobe connected to a monitoring thermometer (Model TH-8, Physitemp, Clifton, N.J.), and sampled using Digidata 1322A and pClamp 9.0 (Molecular Devices), as are the currents concurrently measured in the whole-cell patch clamp mode. The current is continuously sampled (at 100 Hz) at a holding potential of −60 mV.
Compounds of the formula (I) are diluted from 10 mM DMSO stocks (stored at −20° C.) into an extracellular solution either containing 100 μM menthol or subjected to cooling. Increasing concentrations of a compound are applied to a cell in a cumulative manner and concentration-dependent responses are measured after steady-state activation is achieved by either 100 μM menthol or cooling to 10° C. A saturating concentration of a reference antagonist is applied at the end of an experiment (either in the presence of 100 μM menthol or 10° C. temperature) to establish the baseline from which all the other measurements are subtracted.
Percentage inhibition by a compound is calculated as follows:
100×(1−Icomp/I0); where Icomp and I0 are steady-state current amplitudes in either the presence or absence of a concentration of compounds of the formula (I).

Male Sprague Dawley rats [1] = test: Inhibition of Icilin-Induced "Wet-Dog" Shakes in Rats; assay type: in vivo, rat; conditions: Rattus norvegicus, po, HPbCD, Na salt form
Description: Male Sprague Dawley rats (220-450 g, Charles River Labs, n=6-9/treatment) were used to evaluate the ability of selected compounds of the formula (I) to block icilin-induced “wet-dog” shakes (WDS). Compounds of the formula (I) were administered in an appropriate vehicle, such as hydroxypropyl-β-cyclodextrin (HPβCD), methocellulose, 10% Solutol, or H2O, or the like, by the appropriate route, i.p. or p.o., 30-120 minutes before icilin. Icilin was administered in PEG-400 or 10% solutol/H2O, at 1.0 or 3.0 mg/kg, i.p. and spontaneous “wet-dog” shakes were counted 10-20 minutes post-icilin. Results are presented as a percent inhibition of shakes, which was calculated as [1-(test compound WDS count/vehicle WDS count)]×100.

male Sprague-Dawley rats = test: Rat Carrageenan-Induced Radiant Heat Hypersensitivity; assay type: in vivo; conditions: dose 30 p.o., HPbCD, Na salt form
Description: Intraplantar injection of carrageenan into the hind paw of rats causes a robust acute inflammatory response characterized by reddening, swelling and hypersensitivity of the paw to thermal and mechanical stimuli typically peaking 3-6 hours following application and subsiding over the 12-24 hours.
To assess the effect of test compounds of the formula (I) on inflammatory hyperalgesia radiant heat response latencies were evaluated 3 hours following intraplantar carrageenan (Lambda, Type IV, 200 uL) injection into a single hind paw in male Sprague-Dawley rats. The test compound was administered either 2 hours prior to or 1 hour following carrageenan injection. The intent was to determine whether the compound would prevent or retard the hypersensitivity associated with this inflammogen. Baseline thermal response latencies were determined prior to any treatment and again 3 hours after carrageenan injection. Percent reversal of hyperalgesia relative to vehicle treatment (% R) was calculated for both compound treatment paradigms according to the following formula and is depicted in Table 8: % R=(Post compound latency−Post vehicle latency)/((Baseline latency−Post vehicle latency)×100%

Male Sprague Dawley rats [2] = test: Chronic Constriction Injury (CCI)-Induced Model of Neuropathic Pain, Acetone-Induced Hypersensitivity; assay type: in vivo, rat; conditions: Rattus norvegicus, po, Na salt form; for inhibition in vivo at 3 mg/kg: 3 mg/kg p.o.; for inhibition in vivo at 10 mg/kg: 10 mg/kg p.o.; for inhibition in vivo at 17.8 mg/kg: 17.8 mg/kg p.o.; for inhibition in vivo at 30 mg/kg: 30 mg/kg p.o.; for inhibition in vivo at 56 mg/kg: 56 mg/kg p.o.
[3] = treatment 1 hour relative to Cg
[4] = treatment −2 hours relative to Cg
[5] = 4 h, vehicle HPbCD, Water, pretreatment 4 hr, read-out: Percent Inhibition
[6] = 4 h, HPbCD, pretreatment 4 hr, read-out: Percent Inhibition
[7] = 4 h, Water, pretreatment 4 hr, read-out: Percent Inhibition

Sequence of canine TRPM8 (Q1A7N1 1-1104): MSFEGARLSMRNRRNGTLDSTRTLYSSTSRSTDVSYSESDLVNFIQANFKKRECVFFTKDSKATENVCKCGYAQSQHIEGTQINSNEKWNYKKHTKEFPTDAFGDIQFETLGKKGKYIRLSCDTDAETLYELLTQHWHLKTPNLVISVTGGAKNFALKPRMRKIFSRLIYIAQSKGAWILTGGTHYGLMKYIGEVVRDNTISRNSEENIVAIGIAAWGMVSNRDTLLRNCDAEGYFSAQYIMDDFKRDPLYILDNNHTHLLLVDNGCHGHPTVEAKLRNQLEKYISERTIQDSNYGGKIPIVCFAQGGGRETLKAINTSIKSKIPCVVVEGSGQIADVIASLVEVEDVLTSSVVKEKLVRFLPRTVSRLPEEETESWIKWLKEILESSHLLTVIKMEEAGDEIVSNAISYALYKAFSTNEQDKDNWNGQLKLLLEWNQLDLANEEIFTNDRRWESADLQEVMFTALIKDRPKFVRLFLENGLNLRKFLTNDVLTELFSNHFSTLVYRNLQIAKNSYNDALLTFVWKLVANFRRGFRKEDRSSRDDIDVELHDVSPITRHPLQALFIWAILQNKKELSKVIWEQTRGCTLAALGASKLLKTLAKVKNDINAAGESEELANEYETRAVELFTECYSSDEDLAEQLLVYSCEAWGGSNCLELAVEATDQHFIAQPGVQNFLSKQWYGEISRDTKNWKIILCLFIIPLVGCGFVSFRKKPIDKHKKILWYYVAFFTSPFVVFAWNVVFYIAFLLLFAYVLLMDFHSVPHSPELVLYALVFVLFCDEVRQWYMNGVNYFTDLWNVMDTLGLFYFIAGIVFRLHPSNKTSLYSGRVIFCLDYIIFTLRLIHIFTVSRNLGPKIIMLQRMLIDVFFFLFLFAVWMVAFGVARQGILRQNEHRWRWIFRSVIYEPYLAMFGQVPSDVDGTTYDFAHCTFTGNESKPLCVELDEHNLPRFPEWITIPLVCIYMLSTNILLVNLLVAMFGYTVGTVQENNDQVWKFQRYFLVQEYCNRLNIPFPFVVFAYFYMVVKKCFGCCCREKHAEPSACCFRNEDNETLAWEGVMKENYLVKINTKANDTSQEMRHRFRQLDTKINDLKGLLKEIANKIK

Q: With Cc1c(N(Cc2ccc(F)c(C(F)(F)F)c2)S(=O)(=O)c2ccc(C(=O)O)cc2)sc2ccccc12 [Compound 306, N-(3-Methyl-benzo[b]thiophen-2-yl)-N-(4-fluoro-3-trifluoromethyl-benzyl)-4-carboxy-benzenesulfonamide] as the molecule, how does the pIC50 (canine TRPM8; cold stimulation) read?
A: 8.64

Q: And the inhibition at 0.001 µM (canine TRPM8; cold stimulation)?
A: 22.4%

Q: What about the inhibition at 0.003 µM (canine TRPM8; cold stimulation) of the same molecule?
A: 60.1%

Q: And the inhibition at 0.01 µM (canine TRPM8; cold stimulation)?
A: 86.2%

Q: And the inhibition at 0.03 µM (canine TRPM8; cold stimulation, 0.03 μM)?
A: 97.3%

Q: And the pIC50 (canine TRPM8; menthol stimulation)?
A: 8.96

Q: And the inhibition at 0.0003 µM (canine TRPM8; menthol stimulation)?
A: 11.6%

Q: And the inhibition at 0.001 µM (canine TRPM8; menthol stimulation)?
A: 47.3%

Q: And the inhibition at 0.003 µM (canine TRPM8; menthol stimulation)?
A: 78%

Q: And the inhibition at 0.01 µM (canine TRPM8; menthol stimulation)?
A: 94.9%

Q: What about the ED50 (Male Sprague Dawley rats [1]; 1 h, 60 min pre-icilin) of the same molecule?
A: 2.5 mg/kg

Q: What about the “Percent Reversal, relative to vehicle” value (male Sprague-Dawley rats; [3]) of the same molecule?
A: 100%

Q: And the “Percent Reversal, relative to vehicle” value (male Sprague-Dawley rats; [4])?
A: 64%

Q: And the inhibition in vivo at 3 mg/kg (Male Sprague Dawley rats [2]; [5])?
A: 20%

Q: And the inhibition in vivo at 10 mg/kg (Male Sprague Dawley rats [2]; [5])?
A: 38%

Q: And the inhibition in vivo at 17.8 mg/kg (Male Sprague Dawley rats [2]; [5])?
A: 57%

Q: And the inhibition in vivo at 30 mg/kg (Male Sprague Dawley rats [2]; [5])?
A: 68%

Q: And the inhibition in vivo at 56 mg/kg (Male Sprague Dawley rats [2]; [5])?
A: 77%

Q: What about the inhibition in vivo at 100 mg/kg (Male Sprague Dawley rats [2]; 4 h, 100 mg/kg p.o., vehicle HPbCD, Water, pretreatment 4 hr, read-out: Percent Inhibition) of the same molecule?
A: 77%

Q: And the inhibition in vivo at 30 mg/kg (Male Sprague Dawley rats [2]; 6 h, HPbCD, pretreatment 6 hr, read-out: Percent Inhibition)?
A: 69%

Q: And the ED50 (Male Sprague Dawley rats [2]; vehicle HPbCD, Water, pretreatment 4 hr)?
A: 15 mg/kg

Q: How did the pIC50 (canine TRPM8; cold stimulation) turn out when Cc1c(N(Cc2ccc(OC(F)(F)F)cc2)S(=O)(=O)c2ccc(C(=O)O)cc2)sc2ccccc12 [Compound 496, N-(3-Methyl-benzo[b]thiophen-2-yl)-N-(4-trifluoromethoxy-benzyl)-4-carboxy-benzenesulfonamide] was run?
A: 9.26

Q: And the inhibition at 0.0003 µM (canine TRPM8; cold stimulation)?
A: 21.6%

Q: And the inhibition at 0.001 µM (canine TRPM8; cold stimulation)?
A: 77.7%

Q: And the inhibition at 0.003 µM (canine TRPM8; cold stimulation)?
A: 96.4%

Q: What about the pIC50 (canine TRPM8; menthol stimulation) of the same molecule?
A: 9.74

Q: What about the inhibition at 0.0001 µM (canine TRPM8; menthol stimulation, 0.0001 μM) of the same molecule?
A: 27.5%

Q: And the inhibition at 0.0003 µM (canine TRPM8; menthol stimulation)?
A: 68.6%

Q: And the inhibition at 0.001 µM (canine TRPM8; menthol stimulation)?
A: 95.8%

Q: And the inhibition at 0.003 µM (canine TRPM8; menthol stimulation)?
A: 99.6%

Q: What about the ED50 (Male Sprague Dawley rats [1]; 2 h, 120 min pre-icilin) of the same molecule?
A: 2.5 mg/kg

Q: What about the “Percent Reversal, relative to vehicle” value (male Sprague-Dawley rats; [3]) of the same molecule?
A: 106%

Q: And the “Percent Reversal, relative to vehicle” value (male Sprague-Dawley rats; [4])?
A: 74%

Q: What about the inhibition in vivo at 30 mg/kg (Male Sprague Dawley rats [2]; 2 h, Water, pretreatment 2 hr, read-out: Percent Inhibition) of the same molecule?
A: 74%

Q: And the inhibition in vivo at 0.3 mg/kg (Male Sprague Dawley rats [2]; 4 h, 0.3 mg/kg p.o., HPbCD, pretreatment 4 hr, read-out: Percent Inhibition)?
A: 28%

Q: And the inhibition in vivo at 1 mg/kg (Male Sprague Dawley rats [2]; 4 h, 1 mg/kg p.o., HPbCD, pretreatment 4 hr, read-out: Percent Inhibition)?
A: 32%

Q: What about the inhibition in vivo at 3 mg/kg (Male Sprague Dawley rats [2]; [6]) of the same molecule?
A: 23%

Q: What about the inhibition in vivo at 5.6 mg/kg (Male Sprague Dawley rats [2]; 4 h, 5.6 mg/kg p.o., HPbCD, pretreatment 4 hr, read-out: Percent Inhibition) of the same molecule?
A: 72%

Q: What about the inhibition in vivo at 10 mg/kg (Male Sprague Dawley rats [2]; [6]) of the same molecule?
A: 71%

Q: And the inhibition in vivo at 10 mg/kg (Male Sprague Dawley rats [2]; [7])?
A: 76%

Q: And the inhibition in vivo at 17.8 mg/kg (Male Sprague Dawley rats [2]; [7])?
A: 64%

Q: What about the inhibition in vivo at 30 mg/kg (Male Sprague Dawley rats [2]; [7]) of the same molecule?
A: 72%

Q: What about the inhibition in vivo at 56 mg/kg (Male Sprague Dawley rats [2]; [7]) of the same molecule?
A: 68%

Q: And the ED50 (Male Sprague Dawley rats [2]; HPbCD, pretreatment 4 hr)?
A: 3.5 mg/kg
